Here are results for 8 compounds from patent publication US4053635A, “Substituted amides of 3-methyl-4-phenyl-3-butenoic acid, with a high hypolipemizing activity” (Istituto Biochimico Italiano di Loredana Lorenzini S.a.s., priority 1974, dated 1977).

Series [1] is described as follows: hypertriglyceridemia from Fructose (Table II). It counts as in vivo, Sprague-Dawley male rat. The settings on record: 200 mg/kg day by gastric probing, 5 days. The method, then: *Animal: Sprague-Dawley male rat, 150 g.; 6 rat sets. Treatment accordin
to E. A. Nikkila et al., Life sci.5,89,1966; substances administered at
the dose of 200 mg/kg day by gastric probing in two daily administrations

A short description of the next series: in vivo. The following applies: rat, po, read-out: LD 50 per os in the rat.
Series [2] is described as follows: hyperlipemia from ethanol (Table V). It counts as in vivo, Sprague-Dawley male rat. The following applies: gastric intubation; for cholesterolemia: ethyl alcohol 10% 1 week (controls 85±6, ethanol 90±4); for Triglyceridemia ±SE: ethyl alcohol 10% 1 week (controls 87±14, ethanol 238±44). The method, then: Sprague-Dawley male rat of the average weight of 150 g. ethyl alcohol 10%
in water for 1 week (in parenthesis, the N. of animals). The substances
have been administered by gastric intubation at the dose of 200 and 300
mg/kg/day. In experiments of subchronic toxicity, the diethylamide of […]

Series [3] in a line: hypertriglyceridemia from ethanol (Table IV). It counts as in vivo, Sprague-Dawley male rat. The following applies: 300 mg/kg daily, gastric intubation; ethanol twice a day, 4 days (controls 74.20±3.70, ethanol 135.80±13.30). The method, then: | *Animal: Sprague-Dawley male rat of the average weight of 150 g. | Treatment: 0.31 ml. ethanol in 4 ml. water twice a day (in parenthesis, | the N. of animals) for 4 days. The substances have been provided by | gastric intubation at the daily dose of 300 mg/kg.

A short description of series [4]: hyperlipemia from diet (Table III). It counts as in vivo, Sprague-Dawley male rat. The following applies: 200 mg/kg/day per os; for Hepatic Cholesterol ± SE: hyperlipidic diet 4 weeks (diet alone 16.4±0.8); for Hepatic triglycerides ± SE: hyperlipidic diet 4 weeks (diet alone 56.4+3.8); for Triglyceridemia ± ES: hyperlipidic diet 4 weeks (diet alone 117.3±17.7); for Cholesterolemia ± SE: hyperlipidic diet 4 weeks (diet alone 129.9±9.3). The source says: °In parentheses, significativity towards the set treated only with
*Animal: Sprague-Dawley male rat of the initial weight of 120 g (in
parentheses the N. of animals).
Treatment: Hyperlipemia derived from hyperlipidic diet according to Nath N. et al., Nutrition J. 67, 289, 1959; the diet has been administered for 4 weeks. Each drug has been administered at the dose of 200/mg/kg/day per os for 4 weeks.

The nature of series [5]: experiments of subchronic toxicity. It counts as in vivo. The following applies: per os, 150 mg/kg/day and 300 mg/kg/day, 3 or 6 months. The method, then: mg/kg/day. In experiments of subchronic toxicity, the diethylamide of
the doses of 150 mg/kg/day and of 300 mg/kg/day for 3 or 6 months: the […]

Series [6] can be described thus: toxicity in the test animal. The settings on record: in vivo.
For series [7] the following is noted: former works (U.S. Pat. No. 3,231,469; Canonica et al.); cited from earlier work.
The mark [8] stands for this setting: 2nd experiment (controls 45.6±4.7, fructose 94.0±12.1).
Where [9] appears, read: 1st experiment (controls 41.7±1.7, fructose 62.9±5.5).
Setting [10] is: 3rd experiment (controls 77.1±12.1, fructose 155.2±19.2).
[11] abbreviates: 4th experiment (controls 45.3±4.5, fructose 87.4±14.4).

As for `C/C(=C\c1ccccc1)CC(=O)N(CCO)CCO` [IIIc, Diethanolamide of 3-methyl-4-phenyl-3-butenoic acid], the “Triglyceridemia ±SE” value in series [1] (setting [8]) is listed as 69.6±3.9 mg/100 ml. Further, the LD50 in “in vivo” is 1500 mg/kg.

`CCOC(=O)C(C)(C)Oc1ccc(Cl)cc1` [chlofibrate, ethyl ester of 2-(p-chlorophenoxy)-2-methyl propanoic acid, reference compound] had a cholesterolemia in series [2] (200 mg/kg/day) of 70±3 mg/100 ml. For the same compound, the “Triglyceridemia ±SE” value came out at 183±29 mg/100 ml in series [2] (200 mg/kg/day); 121.50±12.26 mg/100 ml in series [3]; 42.2±5.4 mg/100 ml in series [1] (setting [9]); 48.9±2.4 mg/100 ml in series [1] (setting [8]); 62.9±7.2 mg/100 ml in series [1] (setting [10]); 59.1±3.6 mg/100 ml in series [1] (setting [11]). The “Hepatic Cholesterol ± SE” value in series [4] is given as 18.5±1 mg/g fresh tissue. The “Hepatic triglycerides ± SE” value in series [4] is recorded as 30.3±2.5 mg/g fresh tissue. Further, the “Triglyceridemia ± ES” value in series [4] is reported as 60.0±4.3 mg/100 ml. Moreover, in series [4], the “Cholesterolemia ± SE” value is 138.8±10.7 mg/100 ml.

Turning to `C/C(=C\c1ccccc1)CC(=O)NCCO` [IIIa, Monoethanolamide of 3-methyl-4-phenyl-3-butenoic acid], the “Triglyceridemia ±SE” value in series [1] (setting [9]) is recorded as 62.9±6.4 mg/100 ml.

`CCN(CC)C(=O)C/C(C)=C/c1ccccc1` [IIId, Diethylamide of 3-methyl-4-phenyl-3-butenoic acid]: in series [2] (200 mg/kg/day), the cholesterolemia came out at 77±3 mg/100 ml and the “Triglyceridemia ±SE” value turned out to be 169±20 mg/100 ml. In series [2] (300 mg/kg/day), the cholesterolemia was 81±3 mg/100 ml and the “Triglyceridemia ±SE” value was determined as 117±20 mg/100 ml. Further, in series [3], the “Triglyceridemia ±SE” value came out at 90.0±14.83 mg/100 ml. For the same compound, in series [4], the “Hepatic Cholesterol ± SE” value is 19.4±0.7 mg/g fresh tissue, the “Hepatic triglycerides ± SE” value worked out at 25.9±3.8 mg/g fresh tissue, the “Triglyceridemia ± ES” value is listed as 77.4±7.5 mg/100 ml and the “Cholesterolemia ± SE” value came out at 124.9±4.6 mg/100 ml. The “tolerability in subchronic toxicity” value in series [5] was “fairly well tolerated”. Further, the “toxicity in the test animal” value in series [6] was “low toxicity”. Besides, the “Triglyceridemia ±SE” value in series [1] (setting [10]) amounted to 87.1±13.4 mg/100 ml.

Consider `C/C(=C\c1ccccc1)CC(=O)N1CCOCC1` [IIIe, Morpholide of 3-methyl-4-phenyl-3-butenoic acid], for which the “Triglyceridemia ±SE” value in series [1] (setting [11]) turned out to be 61.1±5.1 mg/100 ml. Also, the LD50 in the series “in vivo” stood at 1000 mg/kg.

With `C/C(=C\c1ccccc1)CC(=O)O` [I, 3-methyl-4-phenyl-3-butenoic acid], the “Triglyceridemia ±SE” value in series [3] was 275.11±31.63 mg/100 ml; in series [1] (setting [9]) it was 42.8±3.7 mg/100 ml; in series [1] (setting [8]), 40.8±4.5 mg/100 ml; in series [1] (setting [10]), 100.8±13.8 mg/100 ml; in series [1] (setting [11]), 57.6±2.6 mg/100 ml. For the same compound, the “Hepatic Cholesterol ± SE” value in series [4] was determined as 20.2±0.9 mg/g fresh tissue. In addition, the “Hepatic triglycerides ± SE” value in series [4] is 37.7±5.6 mg/g fresh tissue. The “Triglyceridemia ± ES” value in series [4] is on record as 91.5±13.6 mg/100 ml. The “Cholesterolemia ± SE” value in series [4] is reported as 142.4±7.7 mg/100 ml. Also, the hypolipemic characteristics result in series [7] is listed as “interesting hypolipemic characteristics”.

In the case of `C/C(=C\c1ccccc1)CC(N)=O` [II], in series [7], the hypolipemic characteristics entry was “interesting hypolipemic characteristics”.

In the case of `C/C(=C\c1ccccc1)CC(=O)NC1CCCCC1` [IIIb, Monocyclohexylamide of 3-methyl-4-phenyl-3-butenoic acid], in series [4], the “Hepatic Cholesterol ± SE” value is 22.1±1.1 mg/g fresh tissue, the “Hepatic triglycerides ± SE” value was determined as 37.5±3.0 mg/g fresh tissue, the “Triglyceridemia ± ES” value is 81.5±7.9 mg/100 ml and the “Cholesterolemia ± SE” value came to 135.7±11.6 mg/100 ml. Also, the “Triglyceridemia ±SE” value in series [1] (setting [8]) is on record as 59.1±7.5 mg/100 ml. In addition, the LD50 in “in vivo” worked out at 3000 mg/kg.
